Assay results as given in US10143748B2, “B-cell reduction using CD37-specific and CD20-specific binding molecules” (Emergent Product Development Seattle, LLC, priority 2005, dated 2018).

Assays:
[1] = tested on: CD19 and CD40 positive lymphocytes (B cells); test: depletion of normal B cells from human PBMC cultures; format: cell-based; conditions: 1 μg/ml, 24 to 72 hours, FIG. 20C
Procedure: Human PBMCs were isolated from whole blood by LSM density centrifugation. […] A portion of the incubation reaction was harvested at 48 hours and again at 72 hours after initiation of the experiment. PBMCs were washed and incubated with FITC anti-CD19, FITC anti-CD40, or FITC anti-CD3 for 45 minutes on ice.

[2] = tested on: BJAB cells; test: Annexin V/PI apoptosis analysis, BJAB; format: cell-based
Procedure: Experiments examining the effect of B cell targeted SMIPS on B cell line apoptosis were performed. Each SMIP was tested individually and then in combination. Samples were analyzed at both 24 and 48 hours after initiation of incubation reactions. […] In addition, 20 μg/mL goat anti-human IgG was added to reactions in order to cross link reagents on the cell surface. Cells were then stained with Annexin V-FITC and propidium iodide using the BD Pharmigen Apoptosis Detection Kit I (#556547), and processed according to kit instructions. Briefly, cells were washed twice with cold PBS and resuspended in “binding buffer” at 1×10^6 cells/mL. One hundred microliters of the cells in binding buffer were then stained with 5 μl of Annexin V-FITC and 5 μl of propidium iodide. The cells were gently vortexed and incubated in the dark at room temperature for 15 minutes. Four hundred microliters of binding buffer was then added to each sample. They were then read and analyzed on a FACsCalibur (Becton Dickinson) instrument using Cell Quest software (Becton Dickinson).

[3] = tested on: Ramos B cells; test: CDC assay, Ramos B cells with human serum complement, propidium iodide; format: cell-based; conditions: Ramos B cells, human serum
Procedure: (§1) The cells were incubated 60 minutes at 37° C. […] Samples were incubated 15 minutes at room temperature in the dark prior to analysis by flow cytometry using a FACsCalibur and CellQuest software (Becton Dickinson).
as §1

[4] = tested on: Ramos tumors; test: Ramos tumor xenograft in nude mice; format: in vivo, mouse
Procedure: Mouse tumor xenograft studies exploring combination therapies were performed using nude mice (Harlan) and Ramos or Daudi human tumor lines. Ramos or Daudi tumor cells were grown in T150 flasks in IMDM/10% FBS until they reached 80% confluency. Five million (5×10^6) cells were used as a tumor inoculum per mouse. Cells were injected subcutaneously in the right flank using PBS in a total volume of 0.1 ml or 5.0×1 0^7/ml. Nude mice were allowed to develop tumors and sorted into groups based on tumor size/volume. For each treatment group, 12 mice with a mean tumor volume of approximately 222 mm^3 (range =152-296mm^3) were used. Some mean tumor volumes ranging from 237-251 mm^3 were also used. […] Tumor volume was measured daily with calipers until completion of the experiment (sacrifice or regression).
Mouse tumor xenograft studies were performed using nude mice (Harlan) and Ramos or Daudi human tumor lines. Three different studies were performed based on tumor type and tumor size at the time of treatment with the TRU-016 or other test reagent. Ramos or Daudi tumor cells were grown and (5×10^6) cells were injected subcutaneously in the right flank to inoculate each treated mouse with the tumor. Nude mice were allowed to develop tumors and sorted into groups based on tumor size/volume. In the first study, for each treatment group, 12 mice with a mean tumor volume of 155-237 mm^3 were used. […] Tumor volume was measured daily with calipers until completion of the experiment (sacrifice or regression).
Ramos and Daudi tumor cells were separately grown and (5×10^6) cells were injected subcutaneously in the right flank of mice to initiate the formation of mouse tumor xenografts. After tumor development, mice were sorted into groups based on tumor size/volume (day 0). […] Tumor volume was blindly measured three times weekly with calipers until completion of the experiment (sacrifice or regression).

G28-1 scFv VH11S(SSC—P)H WCH2 WCH3 [TRU-016]
depletion of B lymphocytes compared to T lymphocytes [1]: capable of specific depletion of CD37 positive B lymphocytes
Annexin V Positive ([2]; Bjab, 20 μg/mL SMIP, goat anti-human IgG crosslinking): 30.6
effect on apoptosis of cell lines ([2]; in the presence of crosslinking, BJAB, Ramos, Daudi, Table 2): more significant effect on apoptosis of cell lines than TRU-015 alone
CDC activity with human complement, single reagent [3]: fails to mediate CDC unless aggregates are present
long-term complete regression of tumors (tumor regression rate) ([4]; Ramos tumors, 200 μg, pooled data from 3 experiments): 20%
average tumor volume after treatment ([4]; Ramos, 200 μg/mouse IV days 0, 2, 4, 6, 8, versus huIgG): smaller than that observed using the negative control (huIgG)
Median Survival Time ([4]; established Ramos tumors, 200 μg): 16 days
Percentage of Tumor- Free Mice at Day 90 ([4]; established Ramos tumors, 200 μg, IV days 0, 2, 4, 6, 8): 20%
survival time / median survival time ([4]; established Ramos tumors, combination vs TRU-016 p=0.028, vs rituximab p=0.045): inhibition of tumor growth and improved survival times equivalent to rituximab
tumor growth and median survival ([4]; mice with the smaller Ramos tumors): inhibition of tumor growth and increased median survival times
